What all share (format): cell-based
Assay [1] has as its target T1, 5-HT2B receptor (Homo sapiens, UniProt P41595).
T1 construct: host or cells: CHO-K1
Description: 5-HT2B activation in a similar assay at a single 10 μM concentration. As to the method: Activation data are provided in a similar assay tested at a single 10 μM concentration.

The target in assay [2] is T2, 5-HT2C receptor (Homo sapiens, UniProt P28335).
T2 construct: host or cells: HEK293
T2 sequence (P28335 33-458): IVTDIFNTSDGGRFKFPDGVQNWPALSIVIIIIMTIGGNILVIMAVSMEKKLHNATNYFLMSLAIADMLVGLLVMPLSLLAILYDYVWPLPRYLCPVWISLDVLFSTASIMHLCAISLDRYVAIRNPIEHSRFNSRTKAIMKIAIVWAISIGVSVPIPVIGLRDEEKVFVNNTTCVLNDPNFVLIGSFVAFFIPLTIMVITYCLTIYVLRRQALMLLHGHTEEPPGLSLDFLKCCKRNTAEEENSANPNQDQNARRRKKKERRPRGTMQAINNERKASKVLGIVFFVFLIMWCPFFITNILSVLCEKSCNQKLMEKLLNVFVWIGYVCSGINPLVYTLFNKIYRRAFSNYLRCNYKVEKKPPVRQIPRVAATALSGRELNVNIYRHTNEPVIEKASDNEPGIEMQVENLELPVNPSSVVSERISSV
Description: FLIPR Ca2+ flux functional assay, agonist activity at 5-HT2C. To be noted: stably transfected HEK293 cells. Here is the method:
(§1) Functional assays 5-HT2A, 5-HT2B and 5-HT2C Receptors
(§2) Activity at 5-HT2A, 5-HT2B and 5-HT2C receptors was determined using a FLIPR Ca2+ flux assay at WuXi AppTec Co. Ltd. (Hong Kong) Discovery Biology Unit according to their standard protocols. Briefly, stably transfected cells expressing the receptor of interest (HEK293 for 5-HT2A and 5-HT2C; CHO-K1 for 5-HT2B) were grown and plated in a 384 well plate and incubated at 37° C. and 5% CO2 overnight. A 250 mM stock solution of probenecid in FLIPR calcium assay buffer (10 mL) was freshly prepared and combined with a fluorescent dye (Fluo-4 Direct) to give a final assay concentration of 2.5 mM. Reference compounds were 4-fold serially diluted and the screening compounds were 3-fold serially diluted in 100% DMSO for 10 points using Agilent Bravo, and 750 nL was added to a 384 well compound plate using Echo along with 30 μL assay buffer. The fluorescent dye was then added to the assay plate along with assay buffer to a final volume of 40 μL. The cell plate was incubated for 50 min at 37° C. and 5% CO2 and placed into the FLIPR Tetra along with the compound plate. 10 μL of references and compounds were then transferred from the compound plate into the cell plate and the fluorescent signal was read.
Background: Calcium flux is commonly read through the fluorescence of an indicator in the cells.

The target of assay [3] is T3, 5-HT2A receptor (Homo sapiens, UniProt P28223).
T3 construct: host or cells: HEK293
T3 sequence (P28223 whole entry): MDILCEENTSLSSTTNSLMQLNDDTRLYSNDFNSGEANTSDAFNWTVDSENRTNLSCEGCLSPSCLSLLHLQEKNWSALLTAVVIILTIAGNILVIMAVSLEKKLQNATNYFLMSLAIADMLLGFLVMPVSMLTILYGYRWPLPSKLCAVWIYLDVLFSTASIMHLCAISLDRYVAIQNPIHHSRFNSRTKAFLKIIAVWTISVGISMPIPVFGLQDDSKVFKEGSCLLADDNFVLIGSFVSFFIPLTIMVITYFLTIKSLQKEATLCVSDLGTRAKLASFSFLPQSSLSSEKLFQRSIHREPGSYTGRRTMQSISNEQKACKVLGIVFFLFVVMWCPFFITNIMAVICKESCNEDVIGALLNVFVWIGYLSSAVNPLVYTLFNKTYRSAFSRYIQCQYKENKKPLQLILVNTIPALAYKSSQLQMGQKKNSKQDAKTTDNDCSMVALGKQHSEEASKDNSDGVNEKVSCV
Description: FLIPR Ca2+ flux functional assay, agonist activity at 5-HT2A. As to conditions: stably transfected HEK293 cells. Here is the method:
as §1, §2

Data on 22 molecules can be found in patent publication US20250361233A1, “Compounds For Activating Serotonin Receptor” (PSYLO PTY LTD, priority 2023, published 2025).

T1 sequence (P41595 whole entry): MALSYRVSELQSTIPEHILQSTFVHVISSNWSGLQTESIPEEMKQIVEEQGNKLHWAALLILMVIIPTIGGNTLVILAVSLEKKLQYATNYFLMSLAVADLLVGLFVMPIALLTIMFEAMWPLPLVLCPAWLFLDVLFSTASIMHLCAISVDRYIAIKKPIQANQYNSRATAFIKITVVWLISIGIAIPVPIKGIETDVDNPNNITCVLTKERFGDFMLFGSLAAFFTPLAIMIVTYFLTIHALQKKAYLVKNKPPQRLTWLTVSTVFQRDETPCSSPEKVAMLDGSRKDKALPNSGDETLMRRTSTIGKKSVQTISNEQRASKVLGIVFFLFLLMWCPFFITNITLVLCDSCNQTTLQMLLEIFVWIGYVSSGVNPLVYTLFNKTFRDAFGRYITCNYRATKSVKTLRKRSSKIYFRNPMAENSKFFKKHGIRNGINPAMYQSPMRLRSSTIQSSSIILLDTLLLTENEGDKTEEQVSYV

Regarding `COc1cnc2[nH]cc(CCN3CCCCC3)c2c1` [Compound S47, 5-methoxy-3-(2-(piperidin-1-yl)ethyl)-1H-pyrrolo[2,3-b]pyridine], in assay [1], the “5-HT2B % Activation @ 10 μM” value was 0%. Also, in assay [2], the EC50 is > 10000 nM and the maximal effect (Emax) stood at 8%. In assay [3], this molecule registered an EC50 of 673 nM and an Emax of 65%.

In the case of `C[C@H]1CCN1CCc1c[nH]c2ncc(F)cc12` [Compound S48, (S)-5-fluoro-3-(2-(2-methylazetidin-1-yl)ethyl)-1H-pyrrolo[2,3-b]pyridine], the “5-HT2B % Activation @ 10 μM” value in assay [1] was found to be 2%. For the same molecule, the EC50 is 3960 nM in assay [2] and 115 nM in assay [3]. The maximal response (Emax) came to 44% in assay [2] and 82% in assay [3].

Regarding `C[C@@H]1CCN1CCc1c[nH]c2ncc(F)cc12` [Compound S49, (R)-5-fluoro-3-(2-(2-methylazetidin-1-yl)ethyl)-1H-pyrrolo[2,3-b]pyridine], the “5-HT2B % Activation @ 10 μM” value in assay [1] is recorded as 0%. For the same molecule, the EC50 was > 10000 nM in assay [2] and 65.7 nM in assay [3]. For the same molecule, the Emax in assay [2] is 28%; in assay [3], 78%.

With `C[C@@H]1CCCN1CCc1c[nH]c2ncc(F)cc12` [Compound S50, (R)-5-fluoro-3-(2-(2-methylpyrrolidin-1-yl)ethyl)-1H-pyrrolo[2,3-b]pyridine], the “5-HT2B % Activation @ 10 μM” value in assay [1] came out at 2%. In assay [2], this molecule returned an EC50 of 3980 nM and an Emax of 44%. In assay [3], this molecule showed a concentration for a half-maximal effect (EC50) of 66.5 nM and a maximal effect (Emax) of 90%.

As to `C[C@H]1CCCN1CCc1c[nH]c2ncc(F)cc12` [Compound S51, (S)-5-fluoro-3-(2-(2-methylpyrrolidin-1-yl)ethyl)-1H-pyrrolo[2,3-b]pyridine], the “5-HT2B % Activation @ 10 μM” value in assay [1] was determined as 0%. In assay [2], the half-maximal effective concentration (EC50) was > 10000 nM and the Emax is 2%. For the same molecule, in assay [3], it took 394 nM to reach a half-maximal effect (EC50) and the Emax was found to be 86%.

Consider `CCN(C)CCc1c[nH]c2ncc(Cl)cc12` [Compound S52, 2-(5-chloro-1H-pyrrolo[2,3-b]pyridin-3-yl)-N-ethyl-N-methylethan-1-amine], for which the “5-HT2B % Activation @ 10 μM” value in assay [1] is listed as 3%. In assay [2], this molecule displayed an EC50 of 1950 nM and a maximum response (Emax) of 49%. Further, in assay [3], the EC50 stood at 149 nM and the maximal effect (Emax) is 61%.

For `CC(C)N(C)CCc1c[nH]c2ncc(Cl)cc12` [Compound S53, N-(2-(5-chloro-1H-pyrrolo[2,3-b]pyridin-3-yl)ethyl)-N-methylpropan-2-amine], in assay [1], the “5-HT2B % Activation @ 10 μM” value amounted to 26%. In assay [2], the midpoint of the response, the EC50, lay at 2580 nM and the Emax was 71%. In assay [3], it took 115 nM to reach a half-maximal effect (EC50) and the Emax is 84%.

For the molecule `CCN(C)CCc1c[nH]c2ncc(Br)cc12` [Compound S54, 2-(5-bromo-1H-pyrrolo[2,3-b]pyridin-3-yl)-N-ethyl-N-methylethan-1-amine], the “5-HT2B % Activation @ 10 μM” value in assay [1] was found to be 1%. Further, in assay [2], the EC50 is > 10000 nM and the maximal response (Emax) came to 19%. Besides, in assay [3], the EC50 worked out at 223 nM and the Emax is 69%.

As to `CC(C)N(C)CCc1c[nH]c2ncc(Br)cc12` [Compound S55, N-(2-(5-bromo-1H-pyrrolo[2,3-b]pyridin-3-yl)ethyl)-N-methylpropan-2-amine], the “5-HT2B % Activation @ 10 μM” value in assay [1] was determined as 4%. In assay [2], this molecule came in with an EC50 of 3590 nM and an Emax of 34%. Besides, in assay [3], the concentration giving a half-maximal response (EC50) stood at 158 nM and the Emax is 73%.

For `CN(CCc1c[nH]c2ncc(Br)cc12)C1CC1` [Compound S56, N-(2-(5-bromo-1H-pyrrolo[2,3-b]pyridin-3-yl)ethyl)-N-methylcyclopropanamine], in assay [1], the “5-HT2B % Activation @ 10 μM” value is on record as 2%. In assay [2], this molecule showed a concentration for a half-maximal effect (EC50) of 1850 nM and an Emax of 45%. In assay [3], the 50% effective concentration (EC50) was 226 nM and the Emax amounted to 54%.

Turning to `Brc1cnc2[nH]cc(CCN3CCCC3)c2c1` [Compound S57, 5-bromo-3-(2-(pyrrolidin-1-yl)ethyl)-1H-pyrrolo[2,3-b]pyridine], the “5-HT2B % Activation @ 10 μM” value in assay [1] stood at 12%. For the same molecule, in assay [2], the concentration for a half-maximal effect (EC50) was 3480 nM and the Emax came to 62%. In assay [3], this molecule came in with an EC50 of 897 nM and an Emax of 86%.

`Brc1cnc2[nH]cc(CCN3CCC3)c2c1` [Compound S58, 3-(2-(azetidin-1-yl)ethyl)-5-bromo-1H-pyrrolo[2,3-b]pyridine]: the “5-HT2B % Activation @ 10 μM” value in assay [1] came to 3%. In assay [2], it took 231 nM to reach a half-maximal effect (EC50) and the Emax was 67%. In addition, in assay [3], the concentration giving a half-maximal response (EC50) turned out to be 124 nM and the maximal response (Emax) was determined as 79%.

As to `CC1CCN1CCc1c[nH]c2ncc(Br)cc12` (centres unmarked) [Compound S59, 5-bromo-3-(2-(2-methylazetidin-1-yl)ethyl)-1H-pyrrolo[2,3-b]pyridine], in assay [1], the “5-HT2B % Activation @ 10 μM” value is reported as 0%. The EC50 in assay [2] was > 10000 nM; in assay [3], 410 nM. The Emax was 19% in assay [2] and 69% in assay [3].

As to `Fc1ccccc1CNCCc1c[nH]c2ncc(Br)cc12` [Compound S60, 2-(5-bromo-1H-pyrrolo[2,3-b]pyridin-3-yl)-N-(2-fluorobenzyl)ethan-1-amine], in assay [1], the “5-HT2B % Activation @ 10 μM” value amounted to 0%. Besides, the EC50 in assay [2] was 1790 nM; in assay [3], 285 nM. Also, the Emax in assay [2] is 63%; in assay [3] it was 66%.

For `Fc1cccc(CNCCc2c[nH]c3ncc(Br)cc23)c1` [Compound S61, 2-(5-bromo-1H-pyrrolo[2,3-b]pyridin-3-yl)-N-(3-fluorobenzyl)ethan-1-amine], the “5-HT2B % Activation @ 10 μM” value in assay [1] was determined as 0%. In addition, the half-maximal effective concentration (EC50) in assay [2] is 1920 nM; in assay [3], 74.7 nM. For the same molecule, the figures for the Emax in assay [2] and in assay [3] were 73% and 65%, respectively.

For `COc1ccccc1CNCCc1c[nH]c2ncc(Br)cc12` [Compound S62, 2-(5-bromo-1H-pyrrolo[2,3-b]pyridin-3-yl)-N-(2-methoxybenzyl)ethan-1-amine], in assay [1], the “5-HT2B % Activation @ 10 μM” value is 1%. In assay [2], this molecule returned an EC50 of 480 nM and an Emax of 85%. For the same molecule, in assay [3], the EC50 stood at 7.86 nM and the Emax worked out at 78%.

`COc1cccc(CNCCc2c[nH]c3ncc(Br)cc23)c1` [Compound S63, 2-(5-bromo-1H-pyrrolo[2,3-b]pyridin-3-yl)-N-(3-methoxybenzyl)ethan-1-amine]: the “5-HT2B % Activation @ 10 μM” value in assay [1] stood at 0%. For the same molecule, in assay [2], the 50% effective concentration (EC50) stood at 2970 nM and the maximal response (Emax) was determined as 48%. Further, in assay [3], it took 104 nM to reach a half-maximal effect (EC50) and the Emax was found to be 63%.

Take `CCN(C)CCc1c[nH]c2ncc(OC(F)(F)F)cc12` [Compound S64, N-ethyl-N-methyl-2-(5-(trifluoromethoxy)-1H-pyrrolo[2,3-b]pyridin-3-yl)ethan-1-amine]: the “5-HT2B % Activation @ 10 μM” value in assay [1] worked out at 1%. In assay [2], the concentration for a half-maximal effect (EC50) is > 10000 nM and the maximal effect (Emax) came out at 0%. In assay [3], this molecule showed an EC50 of 1670 nM and a maximum response (Emax) of 47%.

Regarding `CC(C)N(C)CCc1c[nH]c2ncc(OC(F)(F)F)cc12` [Compound S65, N-methyl-N-(2-(5-(trifluoromethoxy)-1H-pyrrolo[2,3-b]pyridin-3-yl)ethyl)propan-2-amine], the “5-HT2B % Activation @ 10 μM” value in assay [1] worked out at 1%. Also, in assay [2], the EC50 was > 10000 nM and the maximal effect (Emax) came to 0%. Besides, in assay [3], the half-maximal effective concentration (EC50) came out at 665 nM and the Emax came to 73%.

Regarding `CCN(C)CCc1c[nH]c2ncc(C#N)cc12` [Compound S66, 3-(2-(ethyl(methyl)amino)ethyl)-1H-pyrrolo[2,3-b]pyridine-5-carbonitrile], the “5-HT2B % Activation @ 10 μM” value in assay [1] was 0%. The values for the EC50 in assay [2] and in assay [3] were > 10000 nM and 1170 nM, respectively. Besides, the Emax in assay [2] worked out at 1%; in assay [3], 65%.

In the case of `CC(C)N(C)CCc1c[nH]c2ncc(C#N)cc12` [Compound S67, 3-(2-(isopropyl(methyl)amino)ethyl)-1H-pyrrolo[2,3-b]pyridine-5-carbonitrile], the “5-HT2B % Activation @ 10 μM” value in assay [1] turned out to be 4%. In assay [2], the EC50 was > 10000 nM and the Emax was determined as 2%. In assay [3], this molecule showed an EC50 of 609 nM and a maximal effect (Emax) of 80%.

For the molecule `CN(CCc1c[nH]c2ncc(C#N)cc12)C1CC1` [Compound S68, 3-(2-(cyclopropyl(methyl)amino)ethyl)-1H-pyrrolo[2,3-b]pyridine-5-carbonitrile], the “5-HT2B % Activation @ 10 μM” value in assay [1] worked out at 11%. In addition, the EC50 in assay [2] came out at 4570 nM; in assay [3] it was 566 nM. For the same molecule, the values for the maximal effect (Emax) in assay [2] and in assay [3] were 44% and 70%, respectively.

In general, EC50 refers to the midpoint of the concentration-response curve. One may read the Emax as the maximal effect, on the per cent scale that the assay sets.
